According to paper PMC6946680, “Modulation of brain cation-Cl^− cotransport via the SPAK kinase inhibitor ZT-1a” (Nature Communications, 2020):
Values joined by “and” are separate entries in the source; they are usually repeats but may differ in a detail not shown here. Equal entries are not always repeated.

Tests used:
Type in all cases: cell-based, human
KCC3 pThr991 = assay: Immunoblot of KCC site 1 phosphorylation (KCC3 Thr991) in HEK-293 cells transfected with FLAG-KCC3
NKCC1 pThr203/207/212 = assay: Immunoblot of NKCC1 p-Thr203/Thr207/Thr212 in HEK-293 cells
Procedure: (§1) Band intensities were quantitated with ImageJ software. ***p < 0.001; **p < 0.01; *p < 0.05; ns, nonsignificant [by one-way ANOVA with post hoc testing (n = 6, error bars represent the mean ± SEM)].
(§2) Thirty-six hours post transfection, cells were stimulated with either control isotonic or hypotonic medium for a period of 30 min. […] Protein concentrations were determined using the Bradford method. Cells were treated with the indicated concentrations of the SPAK/OSR1 inhibitors.

KCC3 pThr1048 = assay: Immunoblot of KCC site 2 phosphorylation (KCC3 Thr1048) in HEK-293 cells transfected with FLAG-KCC3
SPAK pSer373 = assay: Immunoblot of SPAK/OSR1 p-Ser373/Ser325 in HEK-293 cells
Procedure: as §1, §2

[1] = Hypotonic low Cl, compound concentration 1 (unit not given)
[2] = Hypotonic low Cl, compound concentration 3 (unit not given)
[3] = Hypotonic low Cl, compound concentration 10 (unit not given)
[4] = Isotonic control, compound concentration 1 (unit not given)
[5] = Isotonic control, compound concentration 3 (unit not given)
[6] = Isotonic control, compound concentration 10 (unit not given)

| Structure (SMILES) | Site-1 phospho / KCC (KCC3 pThr991; [1]) | Site-1 phospho / KCC (KCC3 pThr991; [2]) | Site-1 phospho / KCC (KCC3 pThr991; [3]) | Site-1 phospho / KCC (KCC3 pThr991; [4]) | Site-1 phospho / KCC (KCC3 pThr991; [5]) | Site-1 phospho / KCC (KCC3 pThr991; [6]) | pThrNKCC1 / NKCC1 (NKCC1 pThr203/207/212; [1]) | pThrNKCC1 / NKCC1 (NKCC1 pThr203/207/212; [2]) | pThrNKCC1 / NKCC1 (NKCC1 pThr203/207/212; [3]) | pThrNKCC1 / NKCC1 (NKCC1 pThr203/207/212; [4]) | pThrNKCC1 / NKCC1 (NKCC1 pThr203/207/212; [6]) | Site-2 phospho / KCC (KCC3 pThr1048; [1]) | Site-2 phospho / KCC (KCC3 pThr1048; [2]) | Site-2 phospho / KCC (KCC3 pThr1048; [3]) | Site-2 phospho / KCC (KCC3 pThr1048; [4]) | Site-2 phospho / KCC (KCC3 pThr1048; [5]) | Site-2 phospho / KCC (KCC3 pThr1048; [6]) | pSer373 / SPAK (SPAK pSer373; [1]) | pSer373 / SPAK (SPAK pSer373; [2]) | pSer373 / SPAK (SPAK pSer373; [3]) | further results |
| --- | --- | --- | --- | --- | --- | --- | --- | --- | --- | --- | --- | --- | --- | --- | --- | --- | --- | --- | --- | --- | --- |
| Cc1cc(C(C#N)c2ccc(Cl)cc2)c(Cl)cc1NC(=O)c1ccccc1O (centres unmarked) [ZT-1b] | 0.297 and 0.278 and 0.267 and 0.28 | 0.255 and 0.247 and 0.261 and 0.237 | 0.022 and 0.031 and 0.029 and 0.035 | 0.198 and 0.201 and 0.187 and 0.21 | 0.167 and 0.17 and 0.155 and 0.16 | 0.095 and 0.121 and 0.114 and 0.104 | 0.309 and 0.287 and 0.264 and 0.27 | 0.122 and 0.114 and 0.1313 and 0.117 | 0.011 and 0.0109 and 0.016 and 0.013 | 0.127 and 0.118 and 0.126 and 0.123 | 0.009 and 0.007 and 0.005 and 0.006 | 0.289 and 0.263 and 0.271 and 0.25 | 0.156 and 0.183 and 0.172 and 0.162 | 0.033 and 0.041 and 0.022 and 0.031 | 0.184 and 0.212 and 0.196 and 0.205 | 0.112 and 0.132 and 0.126 and 0.115 | 0.042 and 0.039 and 0.061 and 0.053 | 0.301 and 0.286 and 0.291 and 0.316 | 0.183 and 0.156 and 0.163 and 0.175 | 0.078 and 0.061 and 0.055 and 0.065 | pThrNKCC1 / NKCC1 (NKCC1 pThr203/207/212; [5]): 0.034 and 0.041 and 0.048 and 0.043; pSer373 / SPAK (SPAK pSer373; [4]): 0.103 and 0.127 and 0.137 and 0.117; pSer373 / SPAK (SPAK pSer373; [5]): 0.087 and 0.09 and 0.06 and 0.076; pSer373 / SPAK (SPAK pSer373; [6]): 0.055 and 0.039 and 0.041 and 0.047 |
| Cc1cc(C(C#N)c2ccc(Cl)cc2)c(Cl)cc1NC(=O)c1ccccc1S (centres unmarked) [ZT-1c] | 1.35 and 1.471 and 1.65 and 1.51 | 1.55 and 1.21 and 1.48 and 1.3 | 1.012 and 0.998 and 0.867 and 0.921 | 1.231 and 1.321 and 1.543 and 1.43 | 1.091 and 0.991 and 0.86 and 0.91 | 0.761 and 0.69 and 0.81 and 0.61 | 1.123 and 1.265 and 1.316 and 1.19 | 0.587 and 0.521 and 0.402 and 0.467 | 0.215 and 0.209 and 0.187 and 0.193 | 0.43 and 0.561 and 0.501 and 0.592 | 0.05 and 0.036 and 0.066 and 0.049 | 0.497 and 0.455 and 0.548 and 0.508 | 0.209 and 0.276 and 0.192 and 0.234 | 0.048 and 0.058 and 0.04 and 0.032 | 0.476 and 0.401 and 0.516 and 0.551 | 0.214 and 0.265 and 0.187 and 0.198 | 0.065 and 0.051 and 0.044 and 0.058 | 0.203 and 0.196 and 0.2213 and 0.215 | 0.112 and 0.125 and 0.103 and 0.117 | 0.032 and 0.051 and 0.046 and 0.039 | pSer373 / SPAK (SPAK pSer373; [4]): 0.122 and 0.112 and 0.129 and 0.116; pSer373 / SPAK (SPAK pSer373; [5]): 0.075 and 0.062 and 0.048 and 0.057; pSer373 / SPAK (SPAK pSer373; [6]): 0.036 and 0.024 and 0.031 and 0.029 |
